Measurements published in patent US20200377496A1, “INDOLE AND BENZIMIDAZOLE DERIVATIVES AS DUAL 5-HT2A and 5-HT6 RECEPTOR ANTAGONISTS” (ADAMED PHARMA, S.A., priority 2018, published 2020).
Where two headings read alike, the source gives them in different places.

What was measured:
human 5-HT2A receptor = human 5-HT2A receptor (Homo sapiens, UniProt P28223); test: 5-HT2A receptor binding assay ([3H]-ketanserin radioligand)
Description: (§1) Preparation of Solutions of Test and Reference Compounds.
(§2) 1 mM stock solutions of tested compounds were prepared in DMSO. Serial dilutions of compounds were prepared in 96-well microplate in assay buffers using automated pipetting system epMotion 5070 (Eppendorf). Each compound was tested in 10 concentrations from 1.0E-6 to 1.0E-11 M (final concentration).
5-HT2A Receptor Binding Assay.
Radioligand binding was performed using membranes from CHO K1 cells stably transfected with the human 5-HT2A receptor (PerkinElmer). All assays were carried out in duplicates. 50 μl working solution of the tested compounds, 50 μl [3H]-ketanserin (final concentration 1 nM) and 150 μl diluted membranes (7 μg protein per well) prepared in assay buffer (50 mM Tris, pH 7.4, 4 mM CaCl2, 0.1% ascorbic acid) were transferred to polypropylene 96-well microplate using 96-wells pipetting station Rainin Liquidator (MettlerToledo). Mianserin (10 μM) was used to define nonspecific binding. Microplate was covered with a sealing tape, mixed and incubated for 60 minutes at 27° C. The reaction was terminated by rapid filtration through GF/B filter mate presoaked with 0.5% polyethyleneimine for 30 minutes. Ten rapid washes with 200 μl 50 mM Tris buffer (4° C., pH 7.4) were performed using automated harvester system Harvester-96 MACH III FM (Tomtec). The filter mates were dried at 37° C. in forced air fan incubator and then solid scintilator MeltiLex was melted on filter mates at 90° C. for 5 minutes. Radioactivity was counted in MicroBeta2 scintillation counter (PerkinElmer). Data were fitted to a one-site curve-fitting equation with Prism 6 (GraphPad Software) and Ki values were estimated from the Cheng-Prusoff equation.

human GPCR 5-HT2A = human GPCR 5-HT2A (Homo sapiens, UniProt P28223); test: Cellular aequorin-based functional assay, 5-HT2A; format: cell-based; details: for 5-HT2A AGO EC50 [nM]: agonist mode, CHO-K1 aequorin cells
Sequence of human GPCR 5-HT2A (P28223 whole entry): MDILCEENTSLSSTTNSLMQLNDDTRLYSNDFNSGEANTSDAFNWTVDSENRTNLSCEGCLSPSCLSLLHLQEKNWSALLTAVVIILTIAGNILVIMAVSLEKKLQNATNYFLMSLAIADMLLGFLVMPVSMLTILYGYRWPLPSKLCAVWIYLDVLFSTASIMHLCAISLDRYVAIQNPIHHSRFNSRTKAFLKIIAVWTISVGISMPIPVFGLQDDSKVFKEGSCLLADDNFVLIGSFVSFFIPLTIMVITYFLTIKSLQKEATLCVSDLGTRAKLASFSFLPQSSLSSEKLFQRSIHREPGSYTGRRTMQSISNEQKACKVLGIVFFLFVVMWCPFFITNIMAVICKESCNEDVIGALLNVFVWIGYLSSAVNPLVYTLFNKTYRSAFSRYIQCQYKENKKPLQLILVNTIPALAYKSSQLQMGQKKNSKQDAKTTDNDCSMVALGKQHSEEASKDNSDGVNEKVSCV
Description: as §1
(§3) 1 mM stock solutions of the tested compounds were prepared in DMSO. Serial dilutions were prepared in 96-well microplate in assay buffers using automated pipetting system epMotion 5070 (Eppendorf). Two independent experiments in duplicates were performed and 6 to 10 concentrations were tested.
(§4) 5-HT2A and 5-HT6 Functional Activity Assays.
(§5) Cellular aequorin-based functional assays were performed with γ-irradiated recombinant CHO-K1 cells expressing mitochondrially-targeted Aequorin, human GPCR (5-HT2A or 5-HT6) and the promiscuous G protein α16 (PerkinElemer). Assays were performed according to the standard protocol provided by the manufacturer. After thawing, cells were transferred to assay buffer (DMEM/HAM's F12 with 0.1% protease-free BSA) and centrifuged. Cell pellet was resuspended in assay buffer and coelenterazine h was added at final concentrations of 5 μM. Cell suspension was incubated at 21° C., protected from light with constant agitation, for 4 hours and then diluted with assay buffer to a concentration of 250,000 cells/ml. After 1 hour incubation 50 yl cell suspension was dispensed using automatic injectors built in radiometric and luminescence plate counter MicroBeta2 LumiJET (PerkinElmer, USA) into white opaque 96-well microplate preloaded with tested compounds. Immediate light emission generated following calcium mobilization was recorded for 30-60 seconds. In antagonist mode, after 15-30 minutes incubation reference agonist was added to the above assay mix and light emission was recorded again. Final concentration of reference agonist was equal EC80: serotonin 40 nM for 5-HT6 receptor and α-methylserotonin 30 nM for 5-HT2A receptor. The assays were performed in the agonist mode (5-HT6 AGO and 5-HT2A AGO) as well as antagonist mode (5-HT6 ANT and 5-HT2A ANT).
(§6) IC50 and EC50 were determined by non-linear regression analysis using GraphPad Prism 6.0 software. The log IC50 was used to obtain the Kb by applying the Cheng-Prusoff approximation.

5-HT6 receptors [1] = biological target: T1, 5-HT6 receptors (Homo sapiens, UniProt P50406); test: 5-HT6 receptor binding assay ([3H]-LSD radioligand); details: membranes from CHO-K1 cells with human 5-HT6 receptor, [3H]-LSD 1 nM
T1 sequence (P50406 whole entry): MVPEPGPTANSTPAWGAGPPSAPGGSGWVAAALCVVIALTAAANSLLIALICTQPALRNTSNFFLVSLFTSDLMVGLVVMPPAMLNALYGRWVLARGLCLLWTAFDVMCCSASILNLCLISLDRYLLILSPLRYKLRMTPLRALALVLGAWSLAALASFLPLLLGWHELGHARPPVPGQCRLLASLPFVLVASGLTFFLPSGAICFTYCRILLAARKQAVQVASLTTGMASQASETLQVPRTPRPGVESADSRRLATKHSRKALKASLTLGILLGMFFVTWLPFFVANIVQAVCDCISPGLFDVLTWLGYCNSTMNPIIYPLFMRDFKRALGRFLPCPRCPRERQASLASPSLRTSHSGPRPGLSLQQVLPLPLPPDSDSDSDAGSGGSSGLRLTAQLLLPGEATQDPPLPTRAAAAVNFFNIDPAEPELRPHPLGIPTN
Description: as §1, §2
5-HT6 Receptor Binding Assay.
Radioligand binding was performed using membranes from CHO-K1 cells stably transfected with the human 5-HT6 receptor (PerkinElmer). All assays were carried out in duplicates. 50 μl working solution of the tested compounds, 50 μl [3H]-LSD (final concentration 1 nM) and 150 μl diluted membranes (8 μg protein per well) prepared in assay buffer (50 mM Tris, pH 7.4, 10 mM MgCl2, 0.1 mM EDTA) were transferred to polypropylene 96 well microplate using 96-wells pipetting station Rainin Liquidator (MettlerToledo). Methiothepin (10 μM) was used to define nonspecific binding. Microplate was covered with a sealing tape, mixed and incubated for 60 minutes at 37° C. The reaction was terminated by rapid filtration through GF/A filter mate presoaked with 0.5% polyethyleneimine for 30 minutes. Ten rapid washes with 200 μl 50 mM Tris buffer (4° C., pH 7.4) were performed using automated harvester system Harvester-96 MACH III FM (Tomtec). The filter mates were dried at 37° C. in forced air fan incubator and then solid scintilator MeltiLex was melted on filter mates at 90° C. for 5 minutes. Radioactivity was counted in MicroBeta2 scintillation counter (PerkinElmer). Data were fitted to a one-site curve-fitting equation with Prism 6 (GraphPad Software) and Ki values were estimated from the Cheng-Prusoff equation.

human GPCR 5-HT6 = human GPCR 5-HT6 (Homo sapiens, UniProt P50406); test: Cellular aequorin-based functional assay, 5-HT6; format: cell-based; details: for 5-HT6 AGO EC50 [nM]: agonist mode, CHO-K1 aequorin cells; for Kb: antagonist mode, reference agonist serotonin 40 nM (EC80), read-out: 5-HT6 ANT Kb
Sequence of human GPCR 5-HT6 (P50406 whole entry): as above
Description: as §1, §3, §4, §5, §6

5-HT6 receptors [2] = biological target: T1, 5-HT6 receptors; details: cited from earlier work
[3] = membranes from CHO K1 cells with human 5-HT2A receptor, [3H]-ketanserin 1 nM, read-out: 5-HT2A Ki
[4] = antagonist mode, reference agonist α-methylserotonin 30 nM (EC80), read-out: 5-HT2A ANT Kb

Sequence of human 5-HT2A receptor (P28223 whole entry): as the sequence (P28223 whole entry) above

Row | SMILES | Ki (human 5-HT2A receptor) [nM] | Kb (human GPCR 5-HT2A) [nM] | 5-HT2A AGO EC50 [nM] (human GPCR 5-HT2A) | Ki (5-HT6 receptors [1]) [nM] | 5-HT6 AGO EC50 [nM] (human GPCR 5-HT6) | Kb (human GPCR 5-HT6) [nM] | Ki (human 5-HT2A receptor; [3]) [nM] | Kb (human GPCR 5-HT2A; [4]) [nM] | affinity for the 5-HT6 receptors (5-HT6 receptors [2])
1 | Cc1ccc(Cn2c(C(F)(F)F)cc3c(N4CCNCC4)cccc32)s1 [Compound 29, 1-[(5-methylthiophen-2-yl)methyl]-4-(piperazin-1-yl)-2-(trifluoromethyl)-1H-indole] | 0.37 | 9.8 | N.C. | 0.11 | N.C. | 0.051 |  |  | 
2 | FC(F)(F)c1cc2c(N3CCNCC3)cccc2n1Cc1cccs1 [Compound 30, 4-(piperazin-1-yl)-1-(thiophen-2-ylmethyl)-2-(trifluoromethyl)-1H-indole] | 0.33 | 5.5 | N.C. | 0.071 | N.C. | 0.65 |  |  | 
3 | FC(F)(F)c1cc2c(N3CCNCC3)cccc2n1Cc1ccsc1 [Compound 31, 4-(piperazin-1-yl)-1-(thiophen-3-ylmethyl)-2-(trifluoromethyl)-1H-indole] | 1.5 | 16 | N.C. | 0.11 | N.C. | 0.2 |  |  | 
4 | CN1CCN(c2cccc3c2cc(C(F)(F)F)n3Cc2ccsc2)CC1 [Compound 32, 4-(4-methylpiperazin-1-yl)-1-(thiophen-3-ylmethyl)-2-(trifluoromethyl)-1H-indole] |  |  | N.C. | 0.061 | N.C. | 0.37 | 2.3 | 11 | 
5 | CN1CCN(c2cccc3c2cc(C(F)(F)F)n3Cc2cccs2)CC1 [Compound 33, 4-(4-methylpiperazin-1-yl)-1-(thiophen-2-ylmethyl)-2-(trifluoromethyl)-1H-indole] |  |  | N.C. | 0.069 | N.C. | 0.28 | 0.17 | 9.7 | 
6 | CC(C)COc1ccc(CNC(=O)N(Cc2ccc(F)cc2)C2CCN(C)CC2)cc1 [pimavanserin] |  |  |  |  |  |  |  |  | no affinity
